Laboratory results published in patent US20100249112A1, “COMBINATION OF CHK AND PARP INHIBITORS FOR THE TREATMENT OF CANCERS” (ASTRAZENECA R&D, priority 2007, published 2010).
Read-outs that look alike come from different tables or passages of the source.

Legend:
[1] = tested on: NCI-H460dnp53 cell line; assay: MTS cell viability assay, CHK-PARP combination, NCI-H460dnp53; assay type: cell-based
Experimental: (§1) Combination experiments were carried out to assess the ability of a CHK inhibitor, i.e., 5-(3-Fluoro-phenyl)-3-ureido-thiophene-2-carboxylic acid (S)-piperidin-3-ylamide, to sensitize cells to a PARP inhibitor, i.e., 4-[3-(4-Cyclopropanecarbonyl-piperazine-1-carbonyl)-4-fluoro-benzyl]-2H-phthalazin-1-one, using a cell viability endpoint.
(§2) The cell lines used in this study were SW620, which endogenously express mutant p53, and NCI-H460dominant negative p53 (NCI-H460dnp53), which are stably transfected to express dominant negative p53. Cells were seeded in 96-well plates on day 0 and treated with either a single drug or simultaneously with both drugs for 4 days beginning on Day 1.
(§3) For sequential addition, either the CHK inhibitor i.e., 5-(3-Fluoro-phenyl)-3-ureido-thiophene-2-carboxylic acid (S)-piperidin-3-ylamide, or the PARP inhibitor, i.e., 4-[3-(4-Cyclopropanecarbonyl-piperazine-1-carbonyl)-4-fluoro-benzyl]-2H-phthalazin-1-one, were added to cells for 24 hours beginning on Day 1, followed by addition of the other drug on Day 2, and exposure to both drugs continued for an additional 72 hours. […] Cells were dosed with the PARP inhibitor to generate a full dose-response curve. See Table 1 for an example of the drug concentrations used in each cell line.
(§4) Cell viability was measured on day 5 using an MTS colorimetric assay. Dose (concentration of drug used, uM) vs. Fraction unaffected (Fu) for PARP alone versus in combination were plotted. Replicate points for the constant concentration of the CHK inhibitor were also plotted. Data were analyzed by comparing the dose-response curve of the single agent to that for the combination.

[2] = tested on: SW620 cell line; assay: MTS cell viability assay, CHK-PARP combination, SW620; assay type: cell-based; conditions: for IC50: Homo sapiens, SW-620, 96 h
Experimental: as §1, §2, §3, §4

[3] = tested on: SW 620 tumors; assay: SW 620 tumor growth inhibition in female nude mice; assay type: in vivo; conditions: 3 weeks
Experimental: (§5) SW 620 tumors were staged in female nude mice as described in Chapter 31 “In vivo Tumor response End Points” by B. A. Teicher (see “Tumor Models in Cancer Research” edited by Beverly A. Teicher, p596. Published by Humana Press Inc. 2002). Treatment started when tumors reached ˜170 mm^3. There were 6 groups in this study with n=10/group. PARP inhibitor 4-[3-(4-Cyclopropanecarbonyl-piperazine-1-carbonyl)-4-fluoro-benzyl]-2H-phthalazin-1-one was given 5 times weekly at 50 mg/kg PO. CHK inhibitor 5-(3-Fluoro-phenyl)-3-ureido-thiophene-2-carboxylic acid (S)-piperidin-3-ylamide was given at 12.5 mg/kg and 25 mg/kg twice weekly IV. The combination groups received PARP inhibitor at 50 mg/kg (5 times a week) and, 2 hours later, the CHK inhibitor at 12.5 or 25 mg/kg (twice a week). Mice received 3 weeks of treatment. Overall, treatment was well tolerated except in one case where a mouse was receiving a CHK inhibitor in the 25 mg/kg group it was found dead prior to study endpoint.

[4] = Tolerability / max weight loss in the SW 620 tumor study; assay type: in vivo; conditions: for Max weight loss: 3 weeks, female nude mice
Experimental: as §5

IC50 ([1]; 96 h, constant CHK inhibitor 0.33 uM, simultaneous addition, 4 days, 3 experiments, read-out: IC50 of PARP inhibitor, CHK inhibitor + PARP inhibitor simultaneous) [µM] | IC50 ([1]; 96 h, single agent, 4 days exposure, representative, 3 experiments, read-out: IC50 of PARP inhibitor alone) [µM] | IC50 ([1]; CHK inhibitor 24 hours, then both drugs for additional 72 hours, 1 experiment, read-out: IC50 of PARP inhibitor, CHK inhibitor followed by PARP inhibitor) [µM] | IC50 ([1]; PARP inhibitor 24 hours, then both drugs for additional 72 hours, 1 experiment, read-out: IC50 of PARP inhibitor, PARP inhibitor followed by CHK inhibitor) [µM] | IC50 ([2]; constant CHK inhibitor 0.28 uM, simultaneous, 4 days, from 2 independent experiments, not directly comparable, read-out: IC50 of PARP inhibitor, CHK inhibitor + PARP inhibitor simultaneous) [µM] | IC50 ([2]; single agent, 4 days exposure, representative, 3 experiments, read-out: IC50 of PARP inhibitor alone) [µM] | SMILES | Activity of CHK inhibitor as a single agent at the constant concentration used ([1]; 0.33 uM, determined previously) | Activity of CHK inhibitor as a single agent at the constant concentration used ([2]; 0.28 uM, determined previously) | Tumor Growth Inhibition % ([3]; 12.5 mg/kg twice weekly IV, p > 0.05) [%] | Tumor Growth Inhibition % ([3]; 25 mg/kg twice weekly IV, p > 0.05) [%] | Max weight loss ([4]; 12.5 mg/kg twice weekly IV) [%] | Death prior to study endpoint ([4]; 25 mg/kg group, one mouse) | Max weight loss ([4]; 25 mg/kg twice weekly IV) [%] | Tumor Growth Inhibition % ([3]; 50 mg/kg PO 5 times weekly, p > 0.1) [%]
– | – | – | – | – | – | NC(=O)Nc1cc(-c2cccc(F)c2)sc1C(=O)N[C@H]1CCCNC1 [CHK inhibitor, 5-(3-Fluoro-phenyl)-3-ureido-thiophene-2-carboxylic acid (S)-piperidin-3-ylamide] | little or no activity | little or no activity | 15 | 22 | 2 | found dead | 1 | –
1.9 | 17.6 | 4.1 | 3.6 | 5.8 | 19.4 | O=C(c1cc(Cc2n[nH]c(=O)c3ccccc23)ccc1F)N1CCN(C(=O)C2CC2)CC1 [PARP inhibitor, 4-[3-(4-Cyclopropanecarbonyl-piperazine-1-carbonyl)-4-fluoro-benzyl]-2H-phthalazin-1-one] | – | – | – | – | – | – | – | 22
